US20250223171A1, “ALLOTROPE OF CARBON HAVING INCREASED ELECTRON DELOCALIZATION” (Structured Nano Carbon LLC, priority 2017, published 2025)

Assays:
rat = settings: cited from earlier work
[1] = Antioxidant behavior of C60 fullerene compared with vitamin C (reported); settings: 60 atoms for C60 fullerene versus six for vitamin C
From the text: Antioxidant behavior has been reported in C60 fullerene as being 172 times that of vitamin C or ascorbic acid.
The reported factor of 172 times greater than vitamin C can be partially explained by C60 fullerene having 60 carbons over which electron delocalization can proceed versus only six atoms of a mixture of half and half carbon and oxygen for vitamin C. If it were just numbers of atoms over which electron delocalization proceeds in its effectiveness in stabilizing unpaired electrons arising from ROS, one would expect that the potency of C60 fullerene would be only ten times that of vitamin C. Phenolics involve only seven atoms for stabilizing unpaired electrons of six carbons from the benzene ring plus the phenolic oxygen atom and thus C60 fullerene would then be expected to be a bit less than ten times that of phenolic antioxidants.
The reported 172 factor superiority of C60 fullerene in antioxidant behavior over vitamin C or ascorbic acid cannot be accounted for on the basis of individual atoms involved in the delocalization network alone. […] So, there must be something exceptional about the electron delocalization involving 3D fullerene concentric shells over 2D ascorbic acid or phenolics. There are several explanations for the superiority of 3D fullerene systems especially of the fullerene CNO systems: […]

Which life expectancy (rat) does the source give for `c12c3c4c5c1c1c6c7c2c2c8c3c3c9c4c4c%10c5c5c1c1c6c6c%11c7c2c2c7c8c3c3c8c9c4c4c9c%10c5c5c1c1c6c6c%11c2c2c7c3c3c8c4c4c9c5c1c1c6c2c3c41` [C60 fullerene] here?
Its life expectancy is “nearly doubling of life expectancy”.

And the “superiority in antioxidant behavior over ascorbic acid, taking into account the number of atoms in the electron delocalization network” value [1]?
The value was 17.2 factor.
